From the NIST ThermoML archive (doi:10.1021/je030222n)

Conditions: Liquid

CCCCO [butan-1-ol]
Closed cell (Static) method
Conditions | vapor or sublimation pressure [kPa]
314.19 K | 2.7
323.2 K | 4.49
338.21 K | 10.38
342.17 K | 12.89
352.81 K | 21.44
361.24 K | 31.52
371.94 K | 49.26

CCCCN=C=O [butyl isocyanate]
Conditions | vapor or sublimation pressure [kPa]
294.15 K | 2.48
323.24 K | 9.52
338.02 K | 17.88
353.02 K | 32.1
362.65 K | 44.82
372.6 K | 61.84
387.87 K | 99.08

CCOC(N)=O [ethyl carbamate]
Closed cell (Static) method
Conditions | vapor or sublimation pressure [kPa]
322.6 K | 0.88
337.2 K | 1.287
342.3 K | 1.494
352.5 K | 1.957
362.6 K | 2.381
371.7 K | 2.953

CCCCCCCCC [nonane]
Closed cell (Static) method
Conditions | vapor or sublimation pressure [kPa]
322.59 K | 2.34
338.33 K | 4.99
351.53 K | 9
371.37 K | 19.81
